Source: patent US20230149421A1, “MEDICAMENT FOR PREVENTING OR TREATING IRRITABLE BOWEL SYNDROME OR INFLAMMATORY BOWEL DISEASE” (priority 2020, published 2023)

Tests used:
Format in all cases: in vivo, Sprague-Dawley rats
[1] = system: caspase-1; assay: Caspase-1 expression in colonic tissue (western blotting), DNBS-induced colitis model; details: DNBS rats; 10 mg/kg oral
Experimental: (§1) The induction of colitis was performed according to the method in Antonioli L, et al. (Non Patent Literature 8). 15 mg of 2,4-dinitrobenzenesulfonic acid (DNBS) in 0.25 ml of 50% ethanol was rectally administered through a polyethylene PE-60 catheter inserted 8 cm proximal to the anus, during a short period of anesthesia by Isoflurane (manufactured by Abbott Laboratories). To the control rat, 0.25 ml of 50% ethanol was administered.
Sample preparation and a test method were performed by the same methods as those in Example 7.
Samples were prepared and a test was performed in the same manner as in Example 7, except that an anti-procaspase-1 antibody and an anti-caspase antibody (all ad1872, manufactured by Abcam plc., dilution 1: 1,000) were used as the antibodies, instead of the anti-occludin antibody.
Sample preparation and a test method were performed by the same methods as those in Example 8.

[2] = system: DNBS-induced colitis model; assay: Change in body weight and spleen weight in DNBS-induced colitis model; details: DNBS rats; for change in body weights: 3, 10 and 30 mg/kg oral immediately after DNBS, 6 days; for spleen weights compared to DNBS-induced colitis model: test compound groups (3, 10, 30 mg/kg) oral
Experimental: Sprague-Dawley rats (body weights of 200 to 225 g) which were male albino rats were used as model animals. Three model animals were housed in one cage in a temperature-controlled environment at 22-24° C., 50-60% humidity, and a light cycle of 12 hours, were given ad libitum access to standard laboratory feed and tap water, and were not used for at least one week after being brought into the laboratory.
A model in which colitis was induced by 2,4-dinitrobenzenesulfonic acid (hereinafter, denoted as DNBS, manufactured by Sigma-Aldrich, Inc.) (in the present specification, referred to as a “DNBS-induced colitis model”) was prepared.
as §1
Food intake was monitored everyday since initiation of the drug therapy. Furthermore, body weights of the rats were measured every morning, and evidence of blood in diarrhea and a stool or rectal bleeding was examined during the experimental period.

[3] = system: DNBS-induced colitis model; assay: Microscopic (histological) damage score of colonic tissue in DNBS-induced colitis model; details: DNBS rats, 6 days; for histological damage in colonic tissues compared to DNBS-induced colitis model: test compound groups (3, 10, 30 mg/kg) oral
Experimental: as §1
(§2) The DNBS-induced colitis model and the control rats were euthanized in a CO2 chamber. After death, mid-abdominal incision was performed, and the colon was excised, which was then opened in a longitudinal direction (longitudinal muscle direction), washed with sterile physiological saline, and split into two parts in the longitudinal direction.
Evaluation of microscopic damage and inflammation was performed with an optical microscope using a tissue section obtained from a specimen of the entire intestine and stained with hematoxylin/eosin. Evaluation of severity of enteritis was performed by scoring the microscopic damage (histological damage) of the samples. As described above, colonic tissues that had been excised and washed with physiological saline were used as the samples.
The scoring was performed according to the criteria determined by making a minor amendment on the criteria reported in Non Patent Literature 11 (Non Patent Literature 12). The microscopic scoring (scoring of histological damage) criteria for the colonic damage are as shown in the following (1) to (5) (Non Patent Literatures 8 to 10), and the total points in (1) to (5) are used as a score.
(1) Loss of mucosal structure (no loss of mucosal structure: 0 points and mild to severe loss of mucosal structure: 1 to 3 points)
(2) Cellular infiltration (no cellular infiltration: 0 points and mild to severe cellular infiltration: 1 to 3 points)
(3) Muscle thickening (no muscle thickening: 0 points and mild to severe muscle thickening: 1 to 3 points) (4) Crypt abscess (none: 0 points and present: 1 point)
(5) Reduction in goblet cells (not reduced: 0 points and reduced: 1 point) […]

[4] = system: occludin; assay: Occludin expression in colonic tissue (western blotting), DNBS-induced colitis model; details: DNBS rats; 10 mg/kg oral
[5] = system: DNBS-induced colitis model; assay: Macroscopic damage score of colonic tissue in DNBS-induced colitis model; details: DNBS rats, 6 days
Experimental: as §1, §2
Evaluation was performed by scoring the macroscopic damage of the samples. As described above, colonic tissues that had been excised and washed with physiological saline were used as the samples.
The scoring was performed according to the criteria determined by making a minor amendment on the criteria reported in Non Patent Literature 11 (Non Patent Literature 12). […]
(4) Thickness (mm) of colonic tissue (colonic wall): 1 point was scored for 1 mm […]

Row | SMILES | caspase-1 expression in colon in which inflammation was induced [1] | change in body weights [2] | spleen weights compared to DNBS-induced colitis model [2] | histological damage in colonic tissues compared to DNBS-induced colitis model [3] | occludin expression in inflamed tissues compared to DNBS-induced colitis model [4] | macroscopic damage scores compared to DNBS-induced colitis model ([5]; 10 and 30 mg/kg oral) | microscopic score compared to DNBS-induced colitis model ([3]; 10 and 30 mg/kg oral) | macroscopic damage scores compared to DNBS-induced colitis model ([5]; 3, 10 and 30 mg/kg oral)
1 | O=C1CC(=O)N(c2cccc(-c3noc(=S)[nH]3)c2)c2ccc3ccccc3c2N1.[Na] [Compound A17, 5-[3-(5-thioxo-4H-[1,2,4]oxadiazol-3-yl)phenyl]-1H-naphtho[1,2-b][1,4]diazepine-2,4(3H,5H)-dione sodium salt] | cannot be decreased | increase in body weights | significantly decreased | not affected | increased | significant decrease | – | –
2 | O=C1CC(=O)N(c2ccc(NC(=O)c3ccccc3I)cc2)c2ccc3ccccc3c2N1 [Compound B48, 5-[4-(2-iodobenzoylamino)phenyl]-1H-naphtho[1,2-b][1,4]diazepine-2,4(3H,5H)-dione] | decreased | increase in body weights | significantly decreased | decreased in a dose-dependent manner | increased | – | significant improvement | significant decrease
